# Source: US20230116602A1, “MCL1 INHIBITORS AND USES THEREOF” (California Institute of Technology, priority 2019, published 2023)
# Read-outs that look alike come from different tables or passages of the source.
# Assays:
# [1] = Maximum tolerated dose in mice; conditions: CD-1 athymic nude, mouse, in vivo, iv
# Procedure: (§1) FIG. 1 are the results of an AMO-1 myeloma cell line xenograft study with a compound of Formula X and with an MCL1 inhibitor being tested in humans and available as catalog number HY-112218 on Oct. 2, 2020 (MedChemExpress LLC, New Jersey, USA). Eight mice were used per group, and mice were dosed by intravenous injection (IV) daily (QD) for the first 5 days of the study with various concentrations of the compound of Formula X or with HY-112218. The 10 mg/kg dose of HY-112218 and the 60 mg/kg dose of the compound of Formula X are about the maximum tolerated dose for mice and represent a theoretical efficacious dose for humans.
# [2] = system: AMO-1 myeloma cell line xenograft; test: AMO-1 myeloma cell line xenograft study; format: in vivo; conditions: AMO-1 xenograft, mice, IV QD for the first 5 days
# Procedure: FIG. 1 are the results of an AMO-1 myeloma cell line xenograft study with a compound of Formula X. Eight mice were used per group, and mice were dosed by intravenous injection (IV) daily (QD) for the first 5 days of the study with various concentrations of the compound of Formula X.
# as §1
# Xenograft models of human cancer cell lines were established in six-week-old CD-1 athymic nude mice by subcutaneous injection of 1.0-3.0×10^7 cells with or without 50% matrigel. […] Tumor xenografts were measured with calipers three times per week, and tumor volume (in mm^3) was determined by multiplying height×width×length. […] Data were analyzed using StudyLog software from StudyDirector (San Francisco, Calif.).
# [3] = system: drug-sensitive cell lines of Table 3; test: Cell line growth retardation assay, sensitive cohort; format: cell-based, Human; conditions: for IC50: arithmetic mean of IC50s over the sensitive cohort of Table 3, 6 days growth, read-out: AvgSen IC50; for Fold Diff: average IC50 of resistant cohort divided by average IC50 of sensitive cohort
# Procedure, shortened: (§2)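 Over 6 days of treatment at six concentrations (0.0032–10 μM), given after a 24 h post-seeding rest, population doublings were counted by imaging against a pre-dose baseline and compared with vehicle. Per-line IC50 values came from dose-response fits; cohort averages used arithmetic means, with sensitive/resistant grouping based on response to reference MCL1 inhibitors.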
# [4] = target: BCL2 (Homo sapiens, UniProt P10415); test: BCL2 affinity assay (competition binding, qPCR readout); conditions: recombinant BCL2, 11-point 3-fold dilution series
# Chain of BCL2 (P10415 whole entry): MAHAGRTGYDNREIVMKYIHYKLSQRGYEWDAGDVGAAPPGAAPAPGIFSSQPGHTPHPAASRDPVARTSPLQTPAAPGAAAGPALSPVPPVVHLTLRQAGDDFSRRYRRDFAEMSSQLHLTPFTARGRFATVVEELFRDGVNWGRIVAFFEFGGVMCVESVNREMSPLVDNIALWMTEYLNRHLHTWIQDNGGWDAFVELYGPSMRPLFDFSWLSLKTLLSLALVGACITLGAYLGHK
# Procedure, shortened: (§3)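 Kds derived from an 11-point 3-fold compound series measured by qPCR of protein eluted from ligand beads. Recombinant, DNA-tagged protein from E. coli or HEK-293 was mixed with compound and peptide-liganded beads in SeaBlock/PBS/Tween/DTT buffer for 1 hour at room temperature (0.9% DMSO).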
# [5] = target: BCLXL (Homo sapiens, UniProt Q07817); test: BCLXL affinity assay (competition binding, qPCR readout); conditions: recombinant BCLXL, 11-point 3-fold dilution series
# Chain of BCLXL (Q07817 whole entry): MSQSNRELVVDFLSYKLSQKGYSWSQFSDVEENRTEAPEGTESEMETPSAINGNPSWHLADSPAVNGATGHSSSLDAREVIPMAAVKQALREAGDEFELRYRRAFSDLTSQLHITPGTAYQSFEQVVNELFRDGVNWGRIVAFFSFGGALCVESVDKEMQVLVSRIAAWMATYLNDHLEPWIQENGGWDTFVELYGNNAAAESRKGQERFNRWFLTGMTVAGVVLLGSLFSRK
# Procedure, shortened: as §3
# [6] = system: drug-resistant cell lines of Table 3; test: Cell line growth retardation assay, resistant cohort; format: cell-based, Human; conditions: arithmetic mean of IC50s over the resistant cohort of Table 3, 6 days growth, read-out: AvgRes IC50
# Procedure, shortened: as §2
# [7] = target: MCL1 (Homo sapiens, UniProt Q07820); test: MCL1 affinity assay (competition binding, qPCR readout); conditions: recombinant MCL1, 11-point 3-fold dilution series
# Chain of MCL1 (Q07820 whole entry): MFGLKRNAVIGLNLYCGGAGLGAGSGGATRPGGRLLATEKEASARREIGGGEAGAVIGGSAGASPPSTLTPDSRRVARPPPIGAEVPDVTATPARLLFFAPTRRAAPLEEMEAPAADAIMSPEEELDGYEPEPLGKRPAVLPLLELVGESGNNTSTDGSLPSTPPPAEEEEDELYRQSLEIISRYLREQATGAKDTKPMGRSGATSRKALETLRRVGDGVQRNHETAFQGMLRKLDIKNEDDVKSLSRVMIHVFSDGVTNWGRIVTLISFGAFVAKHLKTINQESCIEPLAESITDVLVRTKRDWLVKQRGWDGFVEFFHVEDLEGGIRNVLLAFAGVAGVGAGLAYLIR
# Procedure, shortened: as §3
Structure (SMILES),MTD at 5 days [1],day of study at which treated tumors resumed growth [2],"IC50 ([3]; Homo sapiens, 144 h)",Fold Diff [3],Kd [4],Kd [5],"IC50 ([6]; Homo sapiens, 144 h)",Kd [7],IC50 [3],IC50 [6]
"COc1ccccc1-c1nccc(COc2ccccc2C[C@@H](Oc2ncnc3sc(-c4ccc(F)cc4)c(-c4ccc(OCCN5CCN(C)CC5)c(Cl)c4C)c23)C(=O)O)n1 [HY-112218, (R)-2-((5-(3-chloro-2-methyl-4-(2-(4-methylpiperazin-1-yl)ethoxy)phenyl)-6-(4-fluorophenyl)thieno[2,3-d]pyrimidin-4-yl)oxy)-3-(2-((2-(2-methoxyphenyl)pyrimidin-4-yl)methoxy)phenyl)propanoic acid]",~10 mg/kg,~21 days,–,–,–,–,–,–,–,–
"Cc1c(-c2c(C3CCC3)ncc3snc(O[C@H](Cc4ccccc4OCc4ccnn4CC(F)(F)F)C(=O)O)c23)ccc(OCCN2CCN(C)CC2)c1Cl (atropisomer, axis not shown) [Compound 29]",–,–,≤ 1000 nM,+ (“+” represents a fold difference of 10 or more),> 1500 nM,> 1500 nM,> 5 µM,≤ 100 nM,–,–
"COc1cccc(-c2ncc3snc(O[C@H](Cc4ccccc4OCc4ccnc(-c5ccccc5OC)n4)C(=O)O)c3c2-c2ccc(OC[C@@H]3CCCN3C)c(Cl)c2C)c1 (atropisomer, axis not shown) [Compound 49]",–,–,–,− (“−” represents a fold difference less than 10),> 1500 nM,> 1500 nM,–,≤ 100 nM,1000 to 5000 nM,> 5 µM
